# According to BindingDB's records for doi:10.1021/jm0105833 (Harvard University, 2002):
# pKd: −log10 of the molar value. Numbered stars: 1 amine (or outer) side, 2 acyl side, 3 side chain; on linkers, the order of the positions; unused ones are H or OH. Square brackets hold non-standard residues; d marks the D form. Peptide text beside a SMILES is read from it. Phe(ψ(S)CH(OH)CH2N)Pro = O=C([C@@H]1CCCN1C[C@H](O)[C@H](Cc1ccccc1)N[*:1])[*:2]; Nle = CCCC[C@H](N)C(=O)O; Orn = NCCC[C@H](N)C(=O)O
# Target: Purine nucleoside phosphorylase (Homo sapiens) (UniProt P00491)
# Sequence (P00491 whole entry, looked up): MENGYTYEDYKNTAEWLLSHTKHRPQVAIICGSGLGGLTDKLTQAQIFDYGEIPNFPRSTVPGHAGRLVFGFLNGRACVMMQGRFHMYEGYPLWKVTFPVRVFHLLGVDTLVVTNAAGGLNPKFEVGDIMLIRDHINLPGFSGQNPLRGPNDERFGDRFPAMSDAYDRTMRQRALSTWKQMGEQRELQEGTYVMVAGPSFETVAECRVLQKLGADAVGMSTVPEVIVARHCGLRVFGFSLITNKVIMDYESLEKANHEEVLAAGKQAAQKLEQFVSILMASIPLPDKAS
# Assay: Binding affinity against Purine Nucleoside Phosphorylase
row,SMILES,pKd
1,O=P(O)(O)OP(=O)(O)OC[C@H]1O[C@@H](n2cnc3cncnc32)[C@H](O)[C@@H]1O,6.22
2,O=P(O)(O)OP(=O)(O)OP(=O)(O)OP(=O)(O)OC[C@H]1O[C@@H](n2cnc3cncnc32)[C@H](O)[C@@H]1O,5.85
3,O=P(O)(O)OP(=O)(O)OP(=O)(O)OP(=O)(O)OP(=O)(O)OC[C@H]1O[C@@H](n2cnc3cncnc32)[C@H](O)[C@@H]1O,5.96

# Target: T1, Thermolysin (Bacillus thermoproteolyticus, UniProt P00800)
# T1 sequence (P00800 whole entry): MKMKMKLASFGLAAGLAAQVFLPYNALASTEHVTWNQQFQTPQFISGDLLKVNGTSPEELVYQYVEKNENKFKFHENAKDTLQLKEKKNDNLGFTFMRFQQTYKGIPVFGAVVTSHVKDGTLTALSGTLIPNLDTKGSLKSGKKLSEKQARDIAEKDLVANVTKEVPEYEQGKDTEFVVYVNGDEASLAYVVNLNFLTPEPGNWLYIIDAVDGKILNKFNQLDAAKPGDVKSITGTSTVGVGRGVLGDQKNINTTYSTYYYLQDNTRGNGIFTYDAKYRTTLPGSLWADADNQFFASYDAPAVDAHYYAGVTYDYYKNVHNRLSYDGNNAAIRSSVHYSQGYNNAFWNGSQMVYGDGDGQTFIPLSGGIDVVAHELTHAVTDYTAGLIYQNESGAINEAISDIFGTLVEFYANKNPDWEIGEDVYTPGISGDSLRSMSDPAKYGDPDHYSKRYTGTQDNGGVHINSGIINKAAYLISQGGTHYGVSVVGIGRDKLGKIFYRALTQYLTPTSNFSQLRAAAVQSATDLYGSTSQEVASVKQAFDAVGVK
# Assay: Binding affinity against Thermolysin
row,SMILES,pKd
1,CC(C)C[C@H](NC(CCc1ccccc1)C(=O)O)C(=O)N[C@@H](Cc1c[nH]c2ccccc12)C(=O)O (stereo partly specified),7.13
2,CC(C)C[C@H](NP(=O)(O)O)C(N)=O [(P-Leu-NH2) (1-Carbamoyl-3-methyl-butyl)-phosphoramidic acid],5.89
3,CC(C)C[C@H](N)C(=O)NO [(S)-2-Amino-4-methyl-pentanoic acid hydroxyamide],3.72
4,"CC(C)C[C@H](NP(=O)(O)O[C@@H]1O[C@@H](C)[C@H](O)[C@@H](O)[C@H]1O)C(=O)N[C@@H](Cc1c[nH]c2ccccc12)C(=O)O [(S)-2-{(R)-2-[Hydroxy-((2R,3R,4R,5R,6S)-3,4,5-trihydroxy-6-methyl-tetrahydro-pyran-2-yloxy)-phosphorylamino]-4-methyl-pentanoylamino}-3-(1H-indol-3-yl)-propionic acid]",7.55
5,O=[N+]([O-])Nc1ccccc1 [Nitroanilide],6.37
6,CC(C)[C@H](N)C(=O)N[C@@H](Cc1c[nH]c2ccccc12)C(=O)O [Val-Trp] (H-Val-Trp-OH),5.91

# Target: Human immunodeficiency virus type 1 protease (Human immunodeficiency virus 1, UniProt Q72874)
# Assay: Affinity for HIV Protease
row,SMILES,pKd
1,O=C1N(Cc2ccc3ccccc3c2)[C@H](Cc2ccccc2)[C@H](O)[C@@H](O)[C@@H](Cc2ccccc2)N1Cc1ccc2ccccc2c1,9.52
2,CC[C@H](C)[C@H](NC(=O)[C@@H]1CCCN1C[C@H](O)[C@H](Cc1ccccc1)NC(=O)[C@H](CC(N)=O)NC(=O)[C@H](CC(C)C)NC(=O)[C@H](CO)NC(C)=O)C(=O)N[C@H](C(=O)OC)C(C)C (Ac-SLN[Phe(ψ(S)CH(OH)CH2N)Pro]IV-OMe),9.63
3,CCCC[C@H](NC(=O)[C@H](CCCC)NC(=O)[C@@H](NC(=O)[C@@H](NC(C)=O)[C@@H](C)O)[C@@H](C)CC)C(=O)N[C@@H](CCCN)C(=O)N[C@@H](CCCN=C(N)N)C(N)=O (Ac-TI[Nle][Nle][Orn]R-NH2),6.11
4,"CC(C)[C@H](NC(=O)N(C)Cc1ccccn1)C(=O)N[C@@H](Cc1ccccc1)[C@@H](O)[C@H](O)[C@H](Cc1ccccc1)NC(=O)[C@@H](NC(=O)N(C)Cc1ccccn1)C(C)C [(2S)-N-[(2S,3R,4R,5S)-3,4-dihydroxy-5-[(2S)-3-methyl-2-{[methyl(pyridin-2-ylmethyl)carbamoyl]amino}butanamido]-1,6-diphenylhexan-2-yl]-3-methyl-2-{[methyl(pyridin-2-ylmethyl)carbamoyl]amino}butanamide]",9.01
5,"CC(C)[C@H](NC(=O)N(C)Cc1ccccn1)C(=O)N[C@@H](Cc1ccccc1)[C@H](O)[C@H](O)[C@H](Cc1ccccc1)NC(=O)[C@@H](NC(=O)N(C)Cc1ccccn1)C(C)C [(2S)-N-[(2S,3R,4S,5S)-3,4-dihydroxy-5-[(2S)-3-methyl-2-{[methyl(pyridin-2-ylmethyl)carbamoyl]amino}butanamido]-1,6-diphenylhexan-2-yl]-3-methyl-2-{[methyl(pyridin-2-ylmethyl)carbamoyl]amino}butanamide]",10.08
6,"CC(C)[C@H](NC(=O)N(C)Cc1ccccn1)C(=O)N[C@@H](Cc1ccccc1)C[C@@H](O)[C@H](Cc1ccccc1)NC(=O)[C@@H](NC(=O)N(C)Cc1ccccn1)C(C)C [(2S)-N-[(2S,3R,5S)-3-hydroxy-5-[(2S)-3-methyl-2-{[methyl(pyridin-2-ylmethyl)carbamoyl]amino}butanamido]-1,6-diphenylhexan-2-yl]-3-methyl-2-{[methyl(pyridin-2-ylmethyl)carbamoyl]amino}butanamide]",10.46
7,C=CO [E1203],8.41
8,CC1(C)S[C@H]([C@H](NC(=O)Cc2ccccc2)C(=O)NCc2ccccc2)N[C@H]1C(=O)N[C@@H](CO)Cc1ccccc1 [GR-126045],8.10
9,CC1(C)SC(C(NC(=O)Cc2ccccc2)C(=O)NCc2ccccc2)NC1C(=O)NC(Cc1ccccc1)C(O)CC(=O)NCC1=NC2C=CC=CC2=N1 (stereo unspecified) [GR-137615],9.69
10,CC(C)[C@H](NC(=O)N(C)Cc1ccccn1)C(=O)N[C@@H](Cc1ccccc1)[C@H](O)[C@@H](O)[C@H](Cc1ccccc1)NC(=O)[C@@H](NC(=O)N(C)Cc1ccccn1)C(C)C [JMC51852 Inhibitor PP],10.12
11,O=C(N[C@H]1c2ccccc2C[C@H]1O)[C@H](Cc1ccccc1)CC(O)C[C@@H](Cc1ccccc1)C(=O)N[C@H]1c2ccccc2C[C@H]1O [L-700417],9.15
12,COC(=O)[C@@H](NC(=O)[C@@H](NC(=O)[C@H](C)N1CCC([C@H](C)NC(=O)[C@H](C)N)=C[C@@H](Cc2ccccc2)C1)C(C)C)C(C)C [SB-203238],6.37
13,CC(C)CN(C[C@@H](O)[C@H](Cc1ccccc1)NC(=O)O[C@H]1CCOC1)S(=O)(=O)c1ccc(N)cc1 [VX-478],9.23

# Target: Serine protease 1 (Homo sapiens, UniProt P07477)
# Sequence (P07477 whole entry): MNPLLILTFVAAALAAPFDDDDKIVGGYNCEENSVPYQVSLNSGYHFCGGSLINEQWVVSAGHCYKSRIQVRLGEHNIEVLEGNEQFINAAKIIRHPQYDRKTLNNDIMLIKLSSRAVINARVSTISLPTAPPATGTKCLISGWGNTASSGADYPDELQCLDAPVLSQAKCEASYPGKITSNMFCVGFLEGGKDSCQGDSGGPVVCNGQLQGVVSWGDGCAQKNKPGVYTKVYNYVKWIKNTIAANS
# Assay: Binding affinity against trypsin
row,SMILES,pKd
1,NCCCCc1ccccc1 [4-Phenyl-butylamine],1.70

# Target: T2, Fatty acid-binding protein, intestinal (Homo sapiens, UniProt P12104)
# T2 sequence (P12104 whole entry): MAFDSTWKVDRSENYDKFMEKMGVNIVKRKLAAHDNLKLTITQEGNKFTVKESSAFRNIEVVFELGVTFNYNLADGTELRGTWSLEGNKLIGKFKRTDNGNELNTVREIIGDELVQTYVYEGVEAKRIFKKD
# Assay: Binding affinity against Fatty acid-binding protein
row,SMILES,pKd
1,CCCCCCCCCCCCCCCC(=O)O,5.43

# Target: T3, Mast cell carboxypeptidase A (Homo sapiens, UniProt P15088)
# T3 sequence (P15088 whole entry): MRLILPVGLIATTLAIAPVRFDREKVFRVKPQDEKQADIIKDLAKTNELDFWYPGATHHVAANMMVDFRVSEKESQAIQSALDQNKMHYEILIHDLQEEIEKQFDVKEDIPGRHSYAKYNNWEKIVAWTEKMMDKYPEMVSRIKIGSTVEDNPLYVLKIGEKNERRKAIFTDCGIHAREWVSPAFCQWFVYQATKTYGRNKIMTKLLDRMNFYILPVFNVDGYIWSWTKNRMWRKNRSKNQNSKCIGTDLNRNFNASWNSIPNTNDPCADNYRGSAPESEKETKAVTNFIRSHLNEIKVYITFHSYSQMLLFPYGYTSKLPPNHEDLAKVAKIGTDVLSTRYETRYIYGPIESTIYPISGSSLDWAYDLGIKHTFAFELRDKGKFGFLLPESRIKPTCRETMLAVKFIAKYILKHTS
# Assay: Binding affinity against Carboxypeptidase A
row,SMILES,pKd
1,NCCCC[C@H](NC(=O)CN)C(=O)O [(S)-6-Amino-2-(2-amino-acetylamino)-hexanoic acid] (H-Gly-Lys-OH),3.89

# Target: Prothrombin (Homo sapiens, UniProt P00734)
# Assay: Binding affinity against thrombin
row,SMILES,pKd
1,N=C(N)NCCC[C@H](NC(=O)[C@@H]1CCCN1C(=O)[C@@H](N)Cc1ccccc1)C(=O)O [5-amino(imino)methylamino-2-[1-[2-amino-3-phenyl-(2S)-propanoyl]-(5S)-dihydro-1H-5-pyrrolylcarboxamido]-(2S)-pentanoic acid],6.24
